Measurements as given in paper PMC5218480 (PLoS ONE, 2017).

System: MV-4-11 cells
Assay: Gene expression microarray analysis (Affymetrix PrimeView) and GSEA
Assay type: cell-based, human
Design: RFU PODN (11730768_x_at) / Fold change /veh PODN (11730768_x_at) / RFU LINC00158 (11744669_a_at) / Fold change /veh LINC00158 (11744669_a_at) / RFU DUSP10 (11751237_a_at) / Fold change /veh DUSP10 (11751237_a_at) / RFU ID3 (11757404_x_at) / Fold change /veh ID3 (11757404_x_at) / RFU PLEKHG5 (11737974_s_at) / Fold change /veh PLEKHG5 (11737974_s_at) / RFU LRRC4B (11730491_at) / Fold change /veh LRRC4B (11730491_at) / RFU GIMAP4 (11747438_a_at) / Fold change /veh GIMAP4 (11747438_a_at) / RFU KRT8 (11758183_x_at) / Fold change /veh KRT8 (11758183_x_at) / RFU CNN1 (11734310_a_at) / Fold change /veh CNN1 (11734310_a_at) / RFU VPS37D (11726825_at) / Fold change /veh VPS37D (11726825_at) / RFU C10orf10 (11716522_x_at) / Fold change /veh C10orf10 (11716522_x_at) / RFU KIR2DL2 /// KIR2DL4 /// KIR2DL5A /// KIR2DL5B /// KIR2DS1 /// KIR2DS2 /// KIR2DS3 /// KIR2DS4 /// KIR3DL3 /// KIR3DL3 /// KIR3DS1 (11738374_at) / Fold change /veh KIR2DL2 /// KIR2DL4 /// KIR2DL5A /// KIR2DL5B /// KIR2DS1 /// KIR2DS2 /// KIR2DS3 /// KIR2DS4 /// KIR3DL3 /// KIR3DL3 /// KIR3DS1 (11738374_at) / RFU C1QL1 (11718748_at) / Fold change /veh C1QL1 (11718748_at) / RFU TMPRSS4 (11747572_a_at) / Fold change /veh TMPRSS4 (11747572_a_at) / RFU HAMP (11756126_x_at) / Fold change /veh HAMP (11756126_x_at) / RFU RNFT2 (11725882_a_at) / Fold change /veh RNFT2 (11725882_a_at) / RFU NR4A2 (11747474_a_at) / Fold change /veh NR4A2 (11747474_a_at) / RFU ABCC12 (11746883_a_at) / Fold change /veh ABCC12 (11746883_a_at) / RFU TMEM136 (11760407_x_at) / Fold change /veh TMEM136 (11760407_x_at) / RFU CLDN22 /// WWC2 (11732394_at) / Fold change /veh CLDN22 /// WWC2 (11732394_at) / RFU HLA-DPB1 (11760878_x_at) / Fold change /veh HLA-DPB1 (11760878_x_at) / RFU SPINT1 (11716480_a_at) / Fold change /veh SPINT1 (11716480_a_at) / RFU GAP43 (11754022_s_at) / Fold change /veh GAP43 (11754022_s_at) / RFU A4GNT (11735810_at) / Fold change /veh A4GNT (11735810_at) / RFU PRB3 (11715151_x_at) / Fold change /veh PRB3 (11715151_x_at) / RFU TUBB4B (11761932_at) / Fold change /veh TUBB4B (11761932_at) / RFU CAPN14 (11732068_a_at) / Fold change /veh CAPN14 (11732068_a_at) / RFU TMCC2 (11721928_a_at) / Fold change /veh TMCC2 (11721928_a_at) / RFU IRGQ (11745062_a_at) / Fold change /veh IRGQ (11745062_a_at) / RFU FAM174B (11720279_a_at) / Fold change /veh FAM174B (11720279_a_at) / RFU TMPRSS4 (11748680_a_at) / Fold change /veh TMPRSS4 (11748680_a_at) / RFU FAM212B (11763350_a_at) / Fold change /veh FAM212B (11763350_a_at) / RFU PLEKHG5 (11743358_a_at) / Fold change /veh PLEKHG5 (11743358_a_at) / RFU ZSCAN30 (11745921_a_at) / Fold change /veh ZSCAN30 (11745921_a_at) / RFU CMKLR1 (11741424_a_at) / Fold change /veh CMKLR1 (11741424_a_at) / RFU LOC101060620 /// MAPK8IP1 (11723275_at) / Fold change /veh LOC101060620 /// MAPK8IP1 (11723275_at) / RFU SPTSSB (11747773_x_at) / Fold change /veh SPTSSB (11747773_x_at) / RFU PRSS12 (11739890_at) / Fold change /veh PRSS12 (11739890_at) / RFU BIN1 (11741810_x_at) / Fold change /veh BIN1 (11741810_x_at) / RFU WNT11 (11732464_a_at) / Fold change /veh WNT11 (11732464_a_at) / RFU C10orf10 (11716521_a_at) / Fold change /veh C10orf10 (11716521_a_at) / RFU C5orf56 (11738089_at) / Fold change /veh C5orf56 (11738089_at) / RFU CYB561 (11721691_x_at) / Fold change /veh CYB561 (11721691_x_at) / RFU ANKRD19P (11752326_a_at) / Fold change /veh ANKRD19P (11752326_a_at) / RFU OR2T12 /// OR2T33 /// OR2T8 (11738714_s_at) / Fold change /veh OR2T12 /// OR2T33 /// OR2T8 (11738714_s_at) / RFU VCAN (11748164_a_at) / Fold change /veh VCAN (11748164_a_at) / RFU JSRP1 (11732532_at) / Fold change /veh JSRP1 (11732532_at) / RFU KRTAP10-11 (11738290_x_at) / Fold change /veh KRTAP10-11 (11738290_x_at) / RFU MYO3A (11730013_a_at) / Fold change /veh MYO3A (11730013_a_at) / RFU EBF3 (11725865_a_at) / Fold change /veh EBF3 (11725865_a_at) / RFU CAMK2N1 (11719241_x_at) / Fold change /veh CAMK2N1 (11719241_x_at) / RFU C5orf56 (11738088_a_at) / Fold change /veh C5orf56 (11738088_a_at) / RFU OLFML3 (11715873_a_at) / Fold change /veh OLFML3 (11715873_a_at) / RFU LOC100653217 /// NTM (11731650_a_at) / Fold change /veh LOC100653217 /// NTM (11731650_a_at) / RFU MAPK11 (11762145_a_at) / Fold change /veh MAPK11 (11762145_a_at) / RFU FIZ1 (11724087_x_at) / Fold change /veh FIZ1 (11724087_x_at) / RFU OASL (11726364_x_at) / Fold change /veh OASL (11726364_x_at) / RFU SOX15 (11748057_x_at) / Fold change /veh SOX15 (11748057_x_at) / RFU CD79A (11719716_a_at) / Fold change /veh CD79A (11719716_a_at) / RFU HIST1H1D (11736915_at) / Fold change /veh HIST1H1D (11736915_at) / RFU CASKIN2 (11723855_a_at) / Fold change /veh CASKIN2 (11723855_a_at) / RFU LOC730098 (11760151_x_at) / Fold change /veh LOC730098 (11760151_x_at) / RFU OR4N2 (11742367_at) / Fold change /veh OR4N2 (11742367_at) / RFU PRRT2 (11749266_a_at) / Fold change /veh PRRT2 (11749266_a_at) / RFU SNX32 (11753110_a_at) / Fold change /veh SNX32 (11753110_a_at) / RFU CDHR5 (11726645_a_at) / Fold change /veh CDHR5 (11726645_a_at) / RFU RCAN1 (11760418_a_at) / Fold change /veh RCAN1 (11760418_a_at) / RFU FAM167A (11723789_a_at) / Fold change /veh FAM167A (11723789_a_at) / RFU FAM26E (11764081_at) / Fold change /veh FAM26E (11764081_at) / RFU ISYNA1 (11749810_s_at) / Fold change /veh ISYNA1 (11749810_s_at) / RFU ACY1 (11761880_at) / Fold change /veh ACY1 (11761880_at) / RFU 11764098_at / Fold change /veh 11764098_at / RFU SAMD14 (11745864_x_at) / Fold change /veh SAMD14 (11745864_x_at) / RFU NPB (11741838_a_at) / Fold change /veh NPB (11741838_a_at) / RFU TMPRSS6 (11731388_a_at) / Fold change /veh TMPRSS6 (11731388_a_at) / RFU KRTAP10-2 (11738614_at) / Fold change /veh KRTAP10-2 (11738614_at) / RFU ARHGAP8 /// PRR5-ARHGAP8 (11727945_x_at) / Fold change /veh ARHGAP8 /// PRR5-ARHGAP8 (11727945_x_at) / RFU KRTAP5-7 /// NADSYN1 (11734609_at) / Fold change /veh KRTAP5-7 /// NADSYN1 (11734609_at) / RFU RASL12 (11751679_a_at) / Fold change /veh RASL12 (11751679_a_at) / RFU CDKN2B (11736163_a_at) / Fold change /veh CDKN2B (11736163_a_at) / RFU PRF1 (11729649_at) / Fold change /veh PRF1 (11729649_at) / RFU, ZNF638 /// ZNF638-IT1 / Fold change vs veh, ZNF638 /// ZNF638-IT1 / RFU, PANK3 / Fold change vs veh, PANK3 / RFU, SH3YL1 / Fold change vs veh, SH3YL1 / RFU, ZEB2 / Fold change vs veh, ZEB2 / RFU, NRIP1 / Fold change vs veh, NRIP1 / RFU, PTTG1IP / Fold change vs veh, PTTG1IP / RFU, CAPN2 / Fold change vs veh, CAPN2 / RFU, MED14 / Fold change vs veh, MED14 / RFU, SNORA58 / Fold change vs veh, SNORA58 / RFU, C1orf63 / Fold change vs veh, C1orf63 / RFU, LRRFIP1 / Fold change vs veh, LRRFIP1 / RFU, NDUFAF7 / Fold change vs veh, NDUFAF7 / RFU, SLC12A2 / Fold change vs veh, SLC12A2 / RFU, IBTK / Fold change vs veh, IBTK / RFU, ESF1 / Fold change vs veh, ESF1 / Fold change vs veh, TMEM50B / RFU, TAOK1 / Fold change vs veh, TAOK1 / RFU, ACBD3 / Fold change vs veh, ACBD3 / RFU, TMA16 / Fold change vs veh, TMA16 / RFU, RWDD3 / Fold change vs veh, RWDD3 / RFU, BCAT1 / Fold change vs veh, BCAT1 / RFU, EDEM3 / Fold change vs veh, EDEM3 / RFU, TMEM33 / Fold change vs veh, TMEM33 / RFU, WDR75 / Fold change vs veh, WDR75 / RFU, AHCTF1 / Fold change vs veh, AHCTF1 / RFU, TFRC / Fold change vs veh, TFRC / RFU, ZDHHC17 / Fold change vs veh, ZDHHC17 / RFU, NOM1 / Fold change vs veh, NOM1 / RFU, ARL8B / Fold change vs veh, ARL8B / RFU, ZBTB11 / Fold change vs veh, ZBTB11 / RFU, TAMM41 / Fold change vs veh, TAMM41 / RFU, KIAA1704 /// LOC100996395 / Fold change vs veh, KIAA1704 /// LOC100996395 / RFU, ING1 / Fold change vs veh, ING1 / RFU, TRMT61B / Fold change vs veh, TRMT61B / RFU, FUBP3 / Fold change vs veh, FUBP3 / RFU, TP53 / Fold change vs veh, TP53 / RFU, TNKS2 / Fold change vs veh, TNKS2 / RFU, ZFP14 / Fold change vs veh, ZFP14 / RFU, ACTR2 / Fold change vs veh, ACTR2 / RFU, PPP3R1 / Fold change vs veh, PPP3R1 / RFU, PIK3R1 / Fold change vs veh, PIK3R1 / RFU, HNRNPA1 / Fold change vs veh, HNRNPA1 / RFU, RNF170 / Fold change vs veh, RNF170 / RFU, ZNF28 / Fold change vs veh, ZNF28 / RFU, RNGTT / Fold change vs veh, RNGTT / RFU, OGT / Fold change vs veh, OGT / RFU, BRD1 / Fold change vs veh, BRD1 / RFU, MARS / Fold change vs veh, MARS / RFU, ZNF655 / Fold change vs veh, ZNF655 / RFU, FAHD1 / Fold change vs veh, FAHD1 / RFU, BDP1 / Fold change vs veh, BDP1 / RFU, LRRCC1 / Fold change vs veh, LRRCC1 / RFU, ARID1A / Fold change vs veh, ARID1A / RFU, ZNF146 / Fold change vs veh, ZNF146 / RFU, ZNF330 / Fold change vs veh, ZNF330 / RFU, GPN3 / Fold change vs veh, GPN3 / RFU, C9orf123 / Fold change vs veh, C9orf123 / RFU, N4BP2L2 / Fold change vs veh, N4BP2L2 / RFU, ARFIP1 / Fold change vs veh, ARFIP1 / RFU, FAM179B / Fold change vs veh, FAM179B / RFU, BCL10 / Fold change vs veh, BCL10 / RFU, UHRF1BP1L / Fold change vs veh, UHRF1BP1L / RFU, BET1 / Fold change vs veh, BET1 / RFU, CNOT2 / Fold change vs veh, CNOT2 / RFU, ZNF268 / Fold change vs veh, ZNF268 / Fold change vs veh, ZNF507 / RFU, DGCR2 / Fold change vs veh, DGCR2 / RFU, WDSUB1 / Fold change vs veh, WDSUB1 / Fold change vs veh, HSP90B1 /// MIR3652 / RFU, ADSS / Fold change vs veh, ADSS / RFU, GK / Fold change vs veh, GK / RFU, ZNF148 / Fold change vs veh, ZNF148 / RFU, TAF9 / Fold change vs veh, TAF9 / RFU, SLC1A5 / Fold change vs veh, SLC1A5 / RFU, SLMO2 / Fold change vs veh, SLMO2 / RFU, ABCC4 / Fold change vs veh, ABCC4 / RFU, LOC101060439 /// RAP1B / Fold change vs veh, LOC101060439 /// RAP1B / RFU, RFX7 / Fold change vs veh, RFX7 / RFU, GTPBP10 / Fold change vs veh, GTPBP10 / RFU, CNEP1R1 / Fold change vs veh, CNEP1R1 / RFU, BIVM-ERCC5 /// ERCC5 / Fold change vs veh, BIVM-ERCC5 /// ERCC5 / RFU, ILF3 / Fold change vs veh, ILF3 / RFU 11762660_at / Fold change /veh 11762660_at / RFU VCAN (11757783_s_at) / Fold change /veh VCAN (11757783_s_at) / RFU DDX43 (11728927_at) / Fold change /veh DDX43 (11728927_at) / RFU KRT8 (11758188_x_at) / Fold change /veh KRT8 (11758188_x_at) / RFU NKD1 (11759106_at) / Fold change /veh NKD1 (11759106_at) / RFU SRD5A1 (11742802_a_at) / Fold change /veh SRD5A1 (11742802_a_at) / RFU TPSAB1 /// TPSB2 (11721975_s_at) / Fold change /veh TPSAB1 /// TPSB2 (11721975_s_at) / RFU GSTM3 (11746129_a_at) / Fold change /veh GSTM3 (11746129_a_at) / RFU IL23R (11737362_x_at) / Fold change /veh IL23R (11737362_x_at) / RFU TMEM51 (11727254_a_at) / Fold change /veh TMEM51 (11727254_a_at) / RFU PIWIL2 (11732686_x_at) / Fold change /veh PIWIL2 (11732686_x_at) / RFU ORM1 (11744905_x_at) / Fold change /veh ORM1 (11744905_x_at) / RFU CCDC152 (11743942_at) / Fold change /veh CCDC152 (11743942_at) / RFU ECM1 (11717891_a_at) / Fold change /veh ECM1 (11717891_a_at) / RFU IL23R (11748794_a_at) / Fold change /veh IL23R (11748794_a_at) / RFU TNFAIP8L3 (11732012_x_at) / Fold change /veh TNFAIP8L3 (11732012_x_at) / RFU MBOAT4 (11741988_at) / Fold change /veh MBOAT4 (11741988_at) / RFU 11764193_at / Fold change /veh 11764193_at / RFU TMEM53 (11763286_at) / Fold change /veh TMEM53 (11763286_at) / RFU MAGEB2 (11727129_at) / Fold change /veh MAGEB2 (11727129_at) / RFU TMEM200A (11744735_a_at) / Fold change /veh TMEM200A (11744735_a_at) / RFU CCDC152 (11751479_a_at) / Fold change /veh CCDC152 (11751479_a_at) / RFU FAM211A (11726209_a_at) / Fold change /veh FAM211A (11726209_a_at) / RFU RGS16 (11746705_a_at) / Fold change /veh RGS16 (11746705_a_at) / RFU VCAN (11755009_s_at) / Fold change /veh VCAN (11755009_s_at) / RFU RHOB (11743442_s_at) / Fold change /veh RHOB (11743442_s_at) / RFU RGS16 (11720943_a_at) / Fold change /veh RGS16 (11720943_a_at) / RFU RGS16 (11720944_at) / Fold change /veh RGS16 (11720944_at) / RFU, VPS4B / Fold change vs veh, VPS4B / RFU, CREB1 / Fold change vs veh, CREB1 / RFU, DNAJC13 / Fold change vs veh, DNAJC13 / RFU, GNAQ / Fold change vs veh, GNAQ / RFU, CDK5R1 / Fold change vs veh, CDK5R1 / RFU, ZRANB3 / Fold change vs veh, ZRANB3 / RFU, CUL4A / Fold change vs veh, CUL4A / RFU, CCNY / Fold change vs veh, CCNY / RFU, UFL1 / Fold change vs veh, UFL1 / RFU, COG3 / Fold change vs veh, COG3 / RFU, DIAPH2 / Fold change vs veh, DIAPH2 / RFU, SKA2 / Fold change vs veh, SKA2 / RFU, AFF3 / Fold change vs veh, AFF3 / RFU, LMF1 / Fold change vs veh, LMF1 / RFU, IPO11 / Fold change vs veh, IPO11 / RFU, DFFB / Fold change vs veh, DFFB / RFU, FOXP1 / Fold change vs veh, FOXP1 / RFU, CARD8 / Fold change vs veh, CARD8 / RFU, STRN3 / Fold change vs veh, STRN3 / RFU, ADK / Fold change vs veh, ADK / RFU, RASSF2 / Fold change vs veh, RASSF2 / RFU, WIPF1 / Fold change vs veh, WIPF1 / RFU, LARP1B / Fold change vs veh, LARP1B / RFU, RASA1 / Fold change vs veh, RASA1 / RFU, RB1 / Fold change vs veh, RB1 / RFU, PPFIA1 / Fold change vs veh, PPFIA1 / RFU, MAT2A / Fold change vs veh, MAT2A / RFU, CCT5 / Fold change vs veh, CCT5 / RFU, WDR92 / Fold change vs veh, WDR92 / RFU, CUX1 / Fold change vs veh, CUX1 / RFU, TTC7A / Fold change vs veh, TTC7A / RFU, TMEM135 / Fold change vs veh, TMEM135 / RFU, DEPTOR / Fold change vs veh, DEPTOR / RFU, CPM / Fold change vs veh, CPM / RFU, DNAJB6 / Fold change vs veh, DNAJB6 / RFU, CACNA2D3 / Fold change vs veh, CACNA2D3 / RFU, DTX4 / Fold change vs veh, DTX4 / RFU, TFCP2 / Fold change vs veh, TFCP2 / RFU, GMCL1 /// GMCL1P1 / Fold change vs veh, GMCL1 /// GMCL1P1 / RFU, AEBP2 / Fold change vs veh, AEBP2 / RFU, SNHG1 /// SNORD22 /// SNORD25 /// SNORD26 /// SNORD27 /// SNORD28 /// SNORD29 /// SNORD31 / Fold change vs veh, SNHG1 /// SNORD22 /// SNORD25 /// SNORD26 /// SNORD27 /// SNORD28 /// SNORD29 /// SNORD31 / Fold change (Aza/veh), C12orf56 (ProbeSet 11735607_a_at) / Fold change (ACY-1035/veh), C12orf56 (ProbeSet 11735607_a_at) / Fold change (Aza/veh), FGFR1OP (ProbeSet 11751329_s_at) / Fold change (ACY-1035/veh), FGFR1OP (ProbeSet 11751329_s_at) / Fold change (Aza/veh), VPS36 (ProbeSet 11739960_a_at) / Fold change (ACY-1035/veh), VPS36 (ProbeSet 11739960_a_at) / RFU SYPL1 (11715823_x_at) / Fold change /veh SYPL1 (11715823_x_at) / RFU IGFBP7 (11715501_s_at) / Fold change /veh IGFBP7 (11715501_s_at) / RFU REEP3 (11722064_at) / Fold change /veh REEP3 (11722064_at) / RFU IGLL1 (11728026_x_at) / Fold change /veh IGLL1 (11728026_x_at): dose or concentration left out as unconfirmed
Conditions: ProbeSet 11716891_at; LIST B

Structure (SMILES): Nc1ncn([C@@H]2O[C@H](CO)[C@@H](O)[C@H]2O)c(=O)n1 [azacitidine]
- RFU, C9orf123: 42.83 RFU
